Assay results published in patent US20240255464A1 (priority 2021, published 2024).
Where “and” joins values, the source holds several entries; their conditions need not be identical. Equal entries are not always repeated. Where two headings read alike, the source gives them in different places.

System: HL-1 cells
Type: cell-based
[1] = HL-1 cells, 100 nM nifedipine in Tyrode's solution, 60 s
[2] = HL-1 cells, 100 nM nifedipine in Tyrode's solution, 120 s

Row | SMILES | APD50 [1] | APD90 [1] | Amplitude [1] | Refractory Period [1] | APD50 [2] | APD90 [2] | Amplitude [2] | Refractory Period [2] | APD50 | APD90 | Amplitude | Refractory Period | effect on action potential amplitude | effect on action potential duration at 50% or 90% repolarization | effect on repolarization duration | effect on spike amplitude | reversibility of the effect
1 | COC(=O)C1=C(C)NC(C)=C(C(=O)OC)C1c1ccccc1[N+](=O)[O-] [Nifedipine, nifedipine] | 106.0 ms | 172.9 ms | 102.9 mV | 964.8 ms | 59.1 ms | 90.1 ms | 88.9 mV | 1022.3 ms |  |  |  |  |  |  |  |  | 
2 | NC1=N[C@H](O)[C@H]2[C@H]3O[C@]4(O)O[C@@H]([C@@H](O)[C@@]2(N1)[C@@H]4O)[C@]3(O)CO [TTX, tetrodotoxin] |  |  |  |  |  |  |  |  | 81.2 ms and 65.5 ms | 166.6 ms and 141.8 ms | 113.4 mV and 91.9 mV | 948.4 ms and 958.6 ms | lowers the amplitude | reduces the action potential duration | shortening the repolarization duration | reducing the spike amplitude | reversible
